Reference: patent US20150209343A1, “TOPICAL DERMAL COMPOSITIONS” (Allergan, Inc., priority 2014, published 2015)
≈ marks a conversion by molar mass, not a printed value. Like-named read-outs stand apart in the source and are kept apart here.

Columns and labels:
[1] = test system: retinoic acid receptor (RAR) family: RARα, RARβ, and RARγ; settings: cited from earlier work
[2] = Physicochemical properties of tazarotene
[3] = cited from earlier work

crystalline drug by DSC or PXRD analysis ([2]; at 1% or at 4% in Compritol) | solubility ([2]; isopropyl myristate, oil or lipid, read-out: Solubility in isopropyl myristate) [mg/mL] | solubility ([2]; water, read-out: Solubility in water) [mg/mL] | SMILES | binding to RARα, RARβ and RARγ [1] | selectivity among RARs [1] | pKa [3]
 |  |  | CC1(C)CCSc2ccc(C#Cc3ccc(C(=O)O)cn3)cc21 [Tazarotenic acid] | binds to all three members | relative selectivity for RARβ, and RARγ | 
no crystalline drug was detected | 7.4 (≈ 21.1 mM) | < 0.001 | CCOC(=O)c1ccc(C#Cc2ccc3c(c2)C(C)(C)CCS3)nc1 [Tazarotene, Ethyl 6-[(4,4-dimethylthiochroman-6-yl)ethynyl]nicotinate] |  |  | 1.5^(1)
